Test results reported in patent US8519163B2, “Anti-tumor activity of AECHL-1, novel triterpenoid isolated from Ailanthus excelsa in vitro and in vivo” (National Centre for Cell Science, priority 2008, dated 2013).

Experiments:
[1] = tested on: cellular microtubule network; assay: Immunocytochemistry, microtubule network in MCF-7 cells; assay type: cell-based, human; details: paclitaxel 1-20 μM, AECHL-1 2-40 μM, 24 h, confocal microscopy
Procedure: Immunocytochemistry was performed as described previously. […] Cells were incubated with primary anti-p53 antibodies (1:100; Abcam) and anti-α-tubulin antibodies (1:10000; Sigma chemical Co.) for 1 hour at room temperature. After washing with PBS, cells were incubated with CY2-conjugated secondary antibodies (1:200; Chemicon, Germany) and Alexa-conjugated secondary antibodies (1:10000; Sigma, St. Louis, Mo.) for 45 minutes and nuclear staining was done with DAPI. Images were captured under confocal microscope.
The tumor suppressor p53 plays a critical role in preventing human cancer formation. It translocates into the nucleus and works as a transcription factor by upregulating cell cycle regulatory proteins and induces cell cycle arrest and/or programmed cell death (apoptosis) (11). […] After 24 h of incubation, the p53 translocation in the nucleus (green fluorescence) and microtubule network (red fluorescence) was visualized by confocal microscopy.

[2] = tested on: MCF-7 cells; assay: Cell cycle analysis by flow cytometry; assay type: cell-based, human; details: 24 h
Procedure: The cell cycle analysis of MCF-7, B16F10 MDA-MB-231 and PC3 cells was done by flow cytometry. […] Cells were harvested with trypsin (0.05%), 0.02% EDTA, 0.05% glucose and a single-cell suspension was prepared. Cells were washed and were pelleted by centrifugation (1000×g for 2 min) and fixed in 70% ethanol while vortexing and stored at 4° C. for 1 hour. Fixed cells were pelleted by centrifugation, to remove ethanol and washed with PBS. Cells were re-suspended in PBS containing 50 μg/ml propidium iodide, 0.1 g/L RNase and 1% BSA, incubated for 30 min at 37° C. in the dark, and analyzed with flow cytometry (FACS Vantage-BD Sciences, USA) equipped with an argon laser at 488 nm. The data was analyzed using Cell Quest software for determining the percent population in different phases of cell cycle.

[3] = tested on: MCF-7; assay: In vivo xenograft tumor model; parameters: species or system athymic nude mice
Procedure: (§1) The data reported for tumor volumes are expressed as mean±SEM. Statistical differences were determined by ANOVA and post test applied was Tukey-Kramer multiple comparison Test. For Tumor to body weight ratio post test applied was Dunnett multiple comparisons test.

[4] = tested on: p53; assay: Western blot of tumor homogenates of C57B1/6 mice; assay type: in vivo, mouse; details: tumor of C57 mice, 100 μg, compared with control
Procedure: (§2) Prior to immunoblot analysis, tumor segments stored at −80° C. were thawed, washed, minced and homogenized in lysis buffer (120 mM NaCl, 1.0% Triton X 100, 20 mM Tris-HCl, pH 7.5, 10% glycerol, 2 mM EDTA, Protease inhibitor cocktail, Roche) using a Polytron homogenization device. Lysates were incubated at 4° C. for 30 min and centrifuged at 14000 r.p.m. in an Eppendorf micro centrifuge for 15 min. Proteins were isolated in solublised form. Protein concentrations were measured by Bradford assay (Bio-Rad protein assay kit) and stored at −80° C. For immunobloting, 60 μg of total protein from the tumor lysates were used Proteins were resolved in a 10% SDS-polyacrylamide gel, transferred to the immobilon-P […] membrane and blocked with 5% (wt/v) non fat dry milk powder (Sigma) in TBST buffer (10 mM Tris pH 7.6, 150 mM NaCl and 0.1% Tween-20) for three hours at room temperature and then incubated with primary antibodies p53, pp53, p21, Cyclin D1, CDK4 and c-Myc in TBST for 3 h and with actin for 1 hour at room temperature. The membrane was incubated further with the secondary antibody HRP-conjugated (BD Bioscience) at 1:10000 dilution for 1 h at room temperature. Following each antibody incubation, the membrane was washed thoroughly with TBST buffer 3 times. The protein bands were visualized using the enhanced chemiluminescence substrate reaction (Pierce) according to the manufacturer's instructions using X-OMAT AR5 film (Kodak)

[5] = tested on: pp53; assay: Western blot of tumor homogenates of C57B1/6 mice; assay type: in vivo, mouse; details: tumor of C57 mice, 100 μg
Procedure: as §2

[6] = tested on: p21; assay: Western blot of tumor homogenates of C57B1/6 mice; assay type: in vivo, mouse; details: tumor of C57 mice, 100 μg
Procedure: as §2

[7] = tested on: B16F10 melanoma cells; assay: In vivo allograft tumor model; parameters: species or system C57B1/6 mice
Procedure: as §1

For `CC(=O)O[C@H]1C(=O)[C@@]2(C)[C@H]([C@H](OC(=O)c3ccccc3)[C@]3(O)C[C@H](OC(=O)[C@H](O)[C@@H](NC(=O)c4ccccc4)c4ccccc4)C(C)=C1C3(C)C)[C@]1(OC(C)=O)CO[C@@H]1C[C@@H]2O` [Paclitaxel, reference compound], the “effect on microtubule network” value [1] was “microtubule polymerization with an increase in the density of cellular microtubules”, the “Phase of cell cycle (% of cells) G2/M” value ([2]; MCF-7, 1 μM) was 72.55% and the “Phase of cell cycle (% of cells) S” value ([2]; MCF-7, 1 μM) was 18.65%. For the same compound, the “Phase of cell cycle (% of cells) Sub G0” value ([2]; MCF-7, 1 μM) was 3.45%, the “Phase of cell cycle (% of cells) G1” value ([2]; MCF-7, 2 μM) was 7.41% and the “Phase of cell cycle (% of cells) G2/M” value ([2]; MCF-7, 2 μM) was 63.71%. For the same compound, the “Phase of cell cycle (% of cells) S” value ([2]; MCF-7, 2 μM) was 22.89%, the “Phase of cell cycle (% of cells) Sub G0” value ([2]; MCF-7, 2 μM) was 5.21% and the “Phase of cell cycle (% of cells) G2/M” value ([2]; MCF-7, 5 μM) was 72.86%. The “Phase of cell cycle (% of cells) S” value ([2]; MCF-7, 5 μM) was 18.35%, the “Phase of cell cycle (% of cells) Sub G0” value ([2]; MCF-7, 5 μM) was 3.98% and the “Phase of cell cycle (% of cells) G2/M” value ([2]; MCF-7, 10 μM) was 69.36%. The “Phase of cell cycle (% of cells) S” value ([2]; MCF-7, 10 μM) was 18.96%, the “Phase of cell cycle (% of cells) Sub G0” value ([2]; MCF-7, 10 μM) was 3.47% and the “tumor size reduced by” value ([3]; MCF-7 xenograft, 20 μg/0.05 ml intra-tumor for 10 days) was 14.19±0.32%. The “histological examination of tumor tissue” value ([3]; nude mice, 20 μg) was “lowered the tumor cell density”.

`N.N.[Cl][Pt][Cl]` [Cisplatin, reference compound] was tested, and the p53 protein expression [4] was “increasing expression”, the “phosphorylation of p53 (pp53)” value [5] was “did not show any change” and the “expression of p21” value [6] was “increased p21 expression”. For the same compound, the “tumor size reduced by” value ([7]; B16F10 allograft, 100 μg intra-tumor for 12 days, day 18) was 93.13±0.539%, the “tumor volume on day 24” value ([7]; B16F10 allograft, 100 μg, day 24) was “decreased” and the “histological examination of tumor tissue” value ([7]; C57 mice, 100 μg) was “significant increase in necrotic nuclei with decreased tumor cell density”.
